{
  "source": "patent US20220381783A1",
  "about": "“BIOMARKER” (Oxford University Innovation Limited, priority 2019, published 2022)",
  "molecules": {"B1": {"name": "SPRTN-SSH expressed in HEK293 cells (enzyme)", "chain": "MDDDLMLALRLQEEWNLQEAERDHAQESLSLVDASWELVDPTPDLQALFVQFNDQFFWGQLEAVEVKWSVRMTLCAGICSYEGKGGMCSIRLSEPLLKLRPRKDLVETLLHEMIHAYLFVTNNDKDREGHGPEFCKHMHRINSLTGANITVYHTFHDEVDEYRRHWWRCNGPCQHRPPYYGYVKRATNREPSAHDYWWAEHQKTCGGTYIKIKEPENYSKKGKGKAKLGKEPVLAAENKDKPNRGEAQLVIPFSGKGYVLGETSNLPSPGKLITSHAINKTQDLLNQNHSANAVRPNSKIKVKFEQNGSSKNSHLVSPAVSNSHQNVLSNYFPRVSFANQKAFRGVNGSPRISVTVGNIPKNSVSSSSQRRVSSSKISLRNSSKVTESASVMPSQDVSGSEDTFPNKRPRLEDKTVFDNFFIKKEQIKSSGNDPKYSTTTAQNSSSSSSQSKMVNCPVCQNEVLESQINEHLDWCLEGDSIKVKSEESL", "notes": "also called SPRTN-wt-cSSH; not shown: C-terminal SSH tag (pulled down by anti-Strep-tag)"}},
  "key": {"[1]": {"target": "T1, interaction between TEX264 and TOP1 (Homo sapiens, UniProt P11387)", "T1 construct": "FLAG immunoprecipitates prepared from HEK293 cells transiently expressing TEX264WT-FLAG cDNA or EV; expressed in transfected cells; host or cells: HEK293, transiently transfected with pCDNA3.1 TEX264-FLAG", "T1 sequence (P11387 2-765 limits assumed)": "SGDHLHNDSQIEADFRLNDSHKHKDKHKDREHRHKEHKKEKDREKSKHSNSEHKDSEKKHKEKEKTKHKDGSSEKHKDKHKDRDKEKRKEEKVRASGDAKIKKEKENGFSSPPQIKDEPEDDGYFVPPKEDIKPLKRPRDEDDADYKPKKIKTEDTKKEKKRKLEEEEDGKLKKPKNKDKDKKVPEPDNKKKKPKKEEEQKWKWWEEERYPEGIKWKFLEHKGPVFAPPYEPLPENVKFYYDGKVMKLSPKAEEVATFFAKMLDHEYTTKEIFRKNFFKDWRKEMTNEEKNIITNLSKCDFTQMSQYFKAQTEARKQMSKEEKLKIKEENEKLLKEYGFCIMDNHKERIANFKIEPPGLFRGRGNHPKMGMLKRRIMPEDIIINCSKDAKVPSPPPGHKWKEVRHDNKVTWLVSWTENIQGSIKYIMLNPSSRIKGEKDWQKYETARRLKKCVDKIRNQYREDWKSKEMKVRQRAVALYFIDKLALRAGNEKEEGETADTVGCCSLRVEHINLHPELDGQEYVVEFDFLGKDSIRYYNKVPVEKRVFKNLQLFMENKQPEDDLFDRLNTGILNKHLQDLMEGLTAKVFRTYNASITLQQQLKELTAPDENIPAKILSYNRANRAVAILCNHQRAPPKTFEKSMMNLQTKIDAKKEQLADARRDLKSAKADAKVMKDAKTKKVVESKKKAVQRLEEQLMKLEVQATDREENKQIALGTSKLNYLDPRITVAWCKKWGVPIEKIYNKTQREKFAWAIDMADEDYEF", "assay": "Co-immunoprecipitation of TEX264-FLAG with TOP1", "assay_type": "cell-based", "conditions": "HEK293 cells", "quoted_text": "FIG. 2D, FLAG immunoprecipitates prepared from HEK293 cells transiently expressing TEX264WT-FLAG cDNA or EV, treated with CPT (25 nM) or DMSO for 1 hour. FIG. 2E, Immunoblots of anti-Strep-tag immunoprecipitates prepared from wild-type (WT) or ΔTEX264 HEK293 cells expressing p97-Strep-Myc.\nFIG. 7G, Immunoblot analysis of TEX264-FLAG immunoprecipitates prepared from HEK293 cells treated with the indicated doses of CPT for 1 hour.\n(§2) Cells were lysed in IP lysis buffer (50 mM Tris, pH 7.4, 150 mM NaCl, 1 mM EDTA, 0.5% Triton X-100) or IP denaturing buffer (i.e. IP lysis buffer containing 1% SDS) supplemented with protease and phosphatase inhibitors and incubated on ice for 10 min. Denaturing IPs were quenched with Triton X-100 (to a final concentration of 1%). Chromatin was pelleted by centrifugation for 5 min at 1,000×g and then digested with Benzonase at room temperature in Benzonase buffer (2 mM MgCl2, 50 mM Tris, pH 7.4, 150 mM NaCl). Lysates were incubated with anti-FLAG M2 agarose (Sigma-Aldrich), Strep-Tactin Sepharose (IBA), or GFP-trap agarose (Chromotek) for 1-2 h on a rotator at 4° C., washed three times with IP wash buffer (150 mM NaCl, 50 mM Tris-HC1; 0.5 mM EDTA), and resuspended in 2× Laemmli buffer."}, "SUMOylated TOP1": {"system": "SUMOylated TOP1", "assay": "Denaturing immunoprecipitation of YFP-TOP1, SUMO immunoblot", "assay_type": "cell-based, human", "conditions": "HEK293 cells, short treatment with a low dose (25 nM, 1 hour)", "quoted_text": "FIG. 9A, Immunoblot analysis of SUMO1 & SUMO2/3 after denaturing immunoprecipitation of YFP-TOP1 from HEK293 cells treated or not with CPT (25 nM) for 1 or 24 hours. […] Asterisks indicate SUMOylated TOP1.\nas §2"}, "TOP1cc": {"target": "T2, TOP1cc (Homo sapiens, UniProt P11387)", "T2 construct": "endogenous in cells; host or cells: HEK293", "T2 sequence (P11387 2-765 limits assumed)": "T1 sequence (P11387 2-765 limits assumed)", "assay": "RADAR assay of TOP1cc accumulation", "assay_type": "cell-based", "conditions": "HEK293 cells, 1 μM CPT for 1 hour, positive control", "quoted_text": "Treatment with 1 μM CPT for 1 hour was used as a positive control for TOP1cc induction. Double-stranded (ds)DNA is used as a loading control. […] FIG. 1C, Quantification of Figure 1A (error bars represent mean ±SEM; n=3; ***P<0.001, **P<0.01; Student's t-test).\nCells were grown to ˜70% confluency then lysed in M buffer (MB), containing 6 M guanidine thiocyanate, 10 mM Tris—HCl (pH 6.8), 20 mM EDTA, 4% Triton X-100, 1% N-lauroylsarcosine and 1% dithiothreitol. DNA was precipitated by adding 100% ethanol, then washed three times in wash buffer (20 mM Tris—HC1 pH 7.4, 150 mM NaCl and 50% ethanol), and solubilized in 8 mM NaOH. […] For TOP1ccs, samples were digested with Benzonase for 30 minutes at 37° C. and analysed by slot blot analysis on a Nitrocellulose membrane.\nBy lysing cells in chaotropic salts (6M guanidium isothiocyanate), detergents (4% Triton X-100 and 1% N-lauroylsarcosine), and a reducing agent (1% DTT), all molecular interactions, other than covalent interactions, are disrupted."}, "[2]": {"system": "metastatic colorectal cancer", "conditions": "patients with metastatic colorectal cancer; cited from earlier work"}, "HEK293 cells": {"system": "HEK293 cells", "assay": "Puromycin dose required to kill wild-type cells", "assay_type": "cell-based, Human", "protocol": "(§1) To generate CRISPR-Cas9 TEX264 knockout cells, two plasmids —a CRISPR/Cas9 KO plasmid containing guide RNA targeting TEX264 (sc-417333), and a homology directed repair plasmid containing a puromycin resistance cassette (sc-417333-HDR)—were purchased from Santa Cruz. 2.5 μg of each plasmid was transfected into early-passage HEK293, HeLa, and U2OS cells using Fugene HD (Promega). After 72 hours, media supplemented with puromycin was added to the cells. The puromycin dose required to kill wild-type cells was determined to be: 1.25 μg/ml for HEK293 cells, 0.6 μg/ml for HeLa cells, and 1 μg/ml for U2OS cells. After 72 hours, the puromycin-containing media was removed and cells were sorted using a cell sorter into single-cell populations on a 96-well plate. TEX264 expression was analysed by immunoblotting. Multiple clones of each cell line showing loss of all detectable TEX264 were selected for subsequent analysis."}, "U2OS cells": {"system": "U2OS cells", "assay": "Puromycin dose required to kill wild-type cells", "assay_type": "cell-based, Human", "protocol": "as §1"}, "HeLa cells": {"system": "HeLa cells", "assay": "Puromycin dose required to kill wild-type cells", "assay_type": "cell-based, Human", "protocol": "as §1"}, "[3]": {"target": "T3, TOP1 cleavage complexes purified from HEK293 cells by CsCl-gradient fractionation", "T3 chain": "T1 sequence (P11387 2-765 limits assumed)"}, "[4]": {"target": "T4, endogenous p97 of HEK293 cells (human, UniProt P55072 2-806)", "T4 construct": "Detected in immunoprecipitates by mass spectrometry or immunoblot; also called AAA ATPase p97", "T4 sequence (P55072 2-806 limits assumed)": "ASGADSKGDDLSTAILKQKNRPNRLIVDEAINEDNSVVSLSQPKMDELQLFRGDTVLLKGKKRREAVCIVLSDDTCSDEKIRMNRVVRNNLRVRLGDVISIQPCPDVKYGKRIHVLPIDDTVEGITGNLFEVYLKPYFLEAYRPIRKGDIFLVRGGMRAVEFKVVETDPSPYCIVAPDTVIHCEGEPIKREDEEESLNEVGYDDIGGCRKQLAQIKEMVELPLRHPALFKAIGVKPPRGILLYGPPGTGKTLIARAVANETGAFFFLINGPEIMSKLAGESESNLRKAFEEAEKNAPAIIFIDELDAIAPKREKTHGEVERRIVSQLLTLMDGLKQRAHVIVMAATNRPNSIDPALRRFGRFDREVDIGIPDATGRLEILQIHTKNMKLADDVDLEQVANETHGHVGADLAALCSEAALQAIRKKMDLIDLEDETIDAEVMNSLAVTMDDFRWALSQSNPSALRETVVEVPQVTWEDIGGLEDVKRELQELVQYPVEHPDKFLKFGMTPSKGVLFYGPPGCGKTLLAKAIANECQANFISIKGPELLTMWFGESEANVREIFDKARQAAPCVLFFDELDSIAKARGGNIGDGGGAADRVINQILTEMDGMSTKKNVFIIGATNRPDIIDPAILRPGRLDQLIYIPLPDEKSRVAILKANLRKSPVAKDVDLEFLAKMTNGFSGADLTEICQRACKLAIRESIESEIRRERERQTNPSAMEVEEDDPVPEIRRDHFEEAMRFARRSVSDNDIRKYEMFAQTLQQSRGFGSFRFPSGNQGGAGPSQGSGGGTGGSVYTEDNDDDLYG", "assay": "anti-Strep-tag immunoprecipitation from HEK293 cells, immunoblot (FIG. 10c)", "protocol": "FIG. 10A, Colony forming assay to assess the survival of HeLa cells transfected with the indicated siRNAs following a 24 hour treatment with the indicated doses of CPT. FIG. 10B, Immunoblots to confirm depletion efficacy in A. FIG. 10C, Analysis of anti-Strep-tag immunoprecipitates prepared from HEK293 cells expressing SPRTN-SSH, transfected with the indicated siRNA. FIG. 10D, Total DNA-protein crosslinks (DPCs) isolated by RADAR from HEK293 cells treated with the indicated siRNAs. DPCs were resolved by SDS-PAGE and visualised by silver staining. FIG. 10E, Quantification of FIG. 10D (error bars represent mean ±SD; n=2; **P<0.01; ns, not significant; Student's t-test). FIG. 10F, In vitro TOP1cc repair assay. TOP1ccs were purified by CsCl-gradient centrifugation from HEK293 cells, incubated with the indicated purified proteins (100 nM/reaction), slot-blotted onto a nitrocellulose membrane and probed with a […] -specific antibody.\nTo explore how TEX264 regulates SPRTN-dependent TOP1cc processing, SPRTN-SSH was immunoprecipitated from wild-type and TEX264-depleted HEK293 cell extracts. […] As p97 exists in hexameric complexes, it can bind multiple cofactors at a time (Buchberger et al., 2015; Hänzelmann et al., 2011). […]"}},
  "data": [
    {"molecule": "CC[C@@]1(O)C(=O)OCc2c1cc1n(c2=O)Cc2cc3ccccc3nc2-1", "note": "[CPT, Camptothecin]", "values": [
      {"measurement": "co-immunoprecipitation of TOP1 with p97 or TEX264", "setting": "[1]; 1 μM CPT", "value": "did not co-immunoprecipitate"},
      {"measurement": "interaction between TEX264 and TOP1", "setting": "[1]; CPT 25 nM for 1 hour", "value": "increased markedly"},
      {"measurement": "SUMOylated TOP1, particularly SUMO1", "setting": "SUMOylated TOP1", "value": "moderate increases"},
      {"measurement": "TOP1cc accumulation", "setting": "TOP1cc", "value": "substantial TOP1cc accumulation"}
    ]},
    {"molecule": "O=c1[nH]cc(F)c(=O)[nH]1", "note": "[FU, fluorouracil]", "values": [
      {"measurement": "patient response rates", "setting": "[2]", "value": "10-15%"}
    ]},
    {"molecule": "COc1ccc(C[C@H](N)C(=O)N[C@H]2[C@@H](O)[C@H](n3cnc4c(N(C)C)ncnc43)O[C@@H]2CO)cc1", "note": "[puromycin]", "values": [
      {"measurement": "puromycin dose required to kill wild-type cells", "setting": "HEK293 cells", "value": 1.25, "unit": "µg/mL"},
      {"measurement": "puromycin dose required to kill wild-type cells", "setting": "U2OS cells", "value": 1, "unit": "µg/mL"},
      {"measurement": "puromycin dose required to kill wild-type cells", "setting": "HeLa cells", "value": 0.6, "unit": "µg/mL"}
    ]},
    {"molecule": "B1", "values": [
      {"measurement": "in vitro TOP1cc repair assay (slot blot with TOP1cc-specific antibody), SPRTN alone", "setting": "[3]", "value": "SPRTN alone could process only a small proportion of TOP1ccs"},
      {"measurement": "in vitro TOP1cc repair assay (slot blot with TOP1cc-specific antibody), TOP1ccs pre-incubated with p97 and TEX264", "setting": "[3]", "value": "this activity was enhanced when TOP1ccs were pre-incubated with p97 and TEX264 prior to the addition of SPRTN"},
      {"measurement": "binding result", "setting": "[4]", "value": "binds"}
    ]}
  ]
}
